In paper PMC3307315 (The Journal of Biological Chemistry, 2012):

B1: GLUE-WTX: N-terminal streptavidin-binding protein, calmodulin-binding protein, the hemagglutinin epitope (HA), and WTX (protein, UniProt Q5JTC6 1-1135, looked up)
APC membrane recruitment …: METQKDEAAQAKGAAASGSTREQTAEKGAKNKAAEATEGPTSEPSSSGPGRLKKTAMKLFGGKKGICTLPSFFGGGRSKGSGKGSSKKGLSKSKTHDGLSEAAHGPEDVVSEGTGFSLPLPELPCQFPSSQSAHGALETGSRCKTSVAGATEKAVAEKFPSMPKPKKGLKGFFSSIRRHRKSKVTGAEQSEPGAKGPERVRARPHEHVSSAPQVPCFEETFQAPRKENANPQDAPGPKVSPTPEPSPPATEKMACKDPEKPMEACASAHVQPKPAPEASSLEEPHSPETGEKVVAGEVNPPNGPVGDPLSLLFGDVTSLKSFDSLTGCGDIIAEQDMDSMTDSMASGGQRANRDGTKRSSCLVTYQGGGEEMALPDDDDEEEEEEEEVELEEEEEEVKEEEEDDDLEYLWETAQMYPRPNMNLGYHPTTSPGHHGYMLLDPVRSYPGLAPGELLTPQSDQQESAPNSDEGYYDSTTPGFEDDSGEALGLVRRDCLPRDSYSGDALYEFYEPDDSLENSPPGDDCLYDLHGRSSEMFDPFLNFEPFLSSRPPGAMETEEERLVTIQKQLLYWELRREQLEAQEARAREAHAREAHAREAYTREAYGREAYAREAHTWEAHGREARTREAQAREVRCRETQVRETQARQEKPVLEYQMRPLGPSVMGLAAGVSGTSQISHRGITSAFPTTASSEPDWRDFRPLEKRYEGTCSKKDQSTCLMQLFQSDAMFEPDMQEANFGGSPRRAYPTYSPPEDPEEEEVEKEGNATVSFSQALVEFTSNGNLFSSMSCSSDSDSSFTQNLPELPPMVTFDIADVERDGEGKCEENPEFHNDEDLAASLEAFELGYYHKHAFNNYHSRFYQGLPWGVSSLPRYLGLPGLHPRPPPAAMALNRRSRSLDTAETLEMELSNSHLVQGYLESDELQAQQEDSDEEDEEEEEGEWSRDSPLSLYTEPPGAYDWPAWAPCPLPVGPGPAWISPNQLDRPSSQSPYRQATCCIPPMTMSISLSVPESRAPGESGPQLARPSHLHLPMGPCYNLQPQASQSMRARPRDVLLPVDEPSCSSSSGGFSPSPLPQAKPVGITHGIPQLPRVRPEHPQPQPTHYGPSSLDLSKERAEQGASLATSYSSTAMNGNLAK
modifications: streptavidin-binding, calmodulin-binding peptide and HA tags

Key:
HEK293T cells = assay: Cell viability; assay type: cell-based; conditions: siRNA knockdown, etoposide, MTT (Fig. 2E)
35S-labeled NRF2 = assay type: biochemical; conditions: HEK293T cell-free extracts
NRF2 = conditions: cited from earlier work
endogenous KEAP1 = assay: Streptavidin affinity pulldown of GLUE-WTX and Western blot, endogenous KEAP1; assay type: cell-based

Molecule	resistance to apoptosis-inducing reagents (conclusion) (HEK293T cells)	half-life of exogenous NRF2 in cell extracts (35S-labeled NRF2) [h]	half-life of exogenous and endogenous NRF2 in intact cells (NRF2) [h]	complex with endogenous KEAP1 (endogenous KEAP1)
NRF2: transcription factor NF-E2-related factor-2	promote resistance to apoptotic inducing reagents	~6	~0.333	
B1				endogenous KEAP1 forms a complex with GLUE-WTX
